Assay results reported in patent publication EP0287128A1, “Antitumor agent” (RESEARCH CORPORATION TECHNOLOGIES, INC., priority 1987, dated 1988).

Assays:
[1] = tested on: Lewis lung carcinoma; assay: in vivo
Text: (§1) The tumor tissue was obtained from mice bearing 7 to 10 day old tumors. To obtain the tumors, the animals were sacrificed by cervical dislocation. Tumors were removed aseptically and placed into petri dishes containing ice-cold phosphate buffered saline. Tumors were debrided, necrotic tissue was removed and viable tissue was cut into 2-3 mm fragments. These fragments were loaded into 13-gauge trochars for implantation. Animals were weighed prior to each i.p. injection, which began one day after implantation unless otherwise noted, so that the volume of injection could be adjusted to their individual weight.
(§2) Animals were implanted with Lewis lung carcinoma. Five animals were given FdC (12mg/kg) + H₄U 25mg/kg + BAU 9mg/kg 1/day × 7 days starting on day 1. Comparisons included FUra (25mg/kg) and FUra + BAU (10mg/kg).
(§3) Animals were implanted with Lewis lung carcinoma. Seven animals were given FdC (12mg/kg) + H₄U (25mg/kg) + BAU (30mg/kg). Comparisons included FUra 25 mg/kg and FUra + BAU (30mg/kg). The treatment schedule was as in Example 1A.
(§4) Animals were implanted with Lewis lung carcinoma. The treatment schedule was as described above. A comparison was made with FdU tested at its maximum tolerated dose, 75mg/kg. […] "Day of breakout" indicates the day tumor growth was first noticed in a group of animals in which tumor growth was arrested or in which tumor regression occurred.
(§5) Mice were implanted bilaterally with Lewis lung carcinoma (see Table 3).
(§6) Animals were implanted with Lewis lung carcinoma (see Table 4).

[2] = in vivo; settings: mouse, in vivo
Text: as §1, §2, §3, §4, §5, §6

[3] = tested on: mammary adenocarcinoma-755 in its ascitic form; assay: Mammary adenocarcinoma-755, ascitic form, injected i.p. into mice; assay type: in vivo, BD2F₁ mice; settings: for Day of Death / # Cures /6 mice / % Cures / mean day of death / Maximum Weight Loss / T/C: Table 7; for Day of Death: individual animals; for Day of Death / # Cures /6 mice / % Cures / mean day of death / T/C: mg/kg: FdC 12, H4U 25, BAU 10, FUra 26 (with BAU); for Maximum Weight Loss: mg/kg: FdC 12, H4U 25, BAU 10, FUra 26 (with BAU; alone not given); for T/C: not including cures
Text: Forty-eight hours later (day 2) treatment 1/day × 7) was initiated.

[4] = Example 2, BAU 30 mg/kg, H4U 25 mg/kg, administered without a fluorinated pyrimidine analog
[5] = Table 3, one cycle (I) or no cycle mark, mg/kg: FdU 70, FdC 12, H4U 25, BAU 30 where given

Which cures [1, 4] does the source give for `O=c1[nH]c(=O)n(COCCO)cc1Cc1ccccc1` [BAU, benzacyclouridine] here?
Its cures is “no cures”.

And the “mean day of death” value [1, 4]?
The value was “no increase”.

What about the “tumor inhibition” value [1, 4] of the same compound?
The value was “no significant tumor inhibition”.

With `O=C1NC(O)CCN1[C@@H]1O[C@H](CO)[C@@H](O)[C@H]1O` (some centres unmarked) [H₄U, tetrahydrouridine] as the compound, how does the cures [1, 4] read?
Its cures is “no cures”.

What about the “mean day of death” value [1, 4] of the same compound?
Its value is “no increase”.

And the “tumor inhibition” value [1, 4]?
Its value is “no significant tumor inhibition”.

For `O=c1[nH]c(=O)n([C@H]2C[C@H](O)[C@@H](CO)O2)cc1F` [FdU, 5-fluorodeoxyuridine], which “% Tumor Inhibition” value ([1]; Table 3, day 10, one cycle (I) or no cycle mark, mg/kg: FdU 70, FdC 12, H4U 25, BAU 30 where given) is on record?
Its value is 83%.

And the “% Tumor Inhibition” value ([1]; Table 3, day 14, one cycle (I) or no cycle mark, mg/kg: FdU 70, FdC 12, H4U 25, BAU 30 where given)?
The value was 74%.

What about the “% Tumor Inhibition” value ([1]; Table 3, day 18, one cycle (I) or no cycle mark, mg/kg: FdU 70, FdC 12, H4U 25, BAU 30 where given) of the same compound?
Its value is 58%.

And the “% Tumor Inhibition” value ([1]; Table 3, day 22, one cycle (I) or no cycle mark, mg/kg: FdU 70, FdC 12, H4U 25, BAU 30 where given)?
The value was 42%.

What about the “% Tumor Inhibition” value ([1]; Table 3, day 26, one cycle (I) or no cycle mark, mg/kg: FdU 70, FdC 12, H4U 25, BAU 30 where given) of the same compound?
Its value is 31%.

And the “% Tumor Inhibition” value ([1]; Table 3, day 38, one cycle (I) or no cycle mark, mg/kg: FdU 70, FdC 12, H4U 25, BAU 30 where given)?
The value was 19%.

What about the T/C ([1]; Table 3, mean day of death T/C, one cycle (I) or no cycle mark, mg/kg: FdU 70, FdC 12, H4U 25, BAU 30 where given, * not including cures) of the same compound?
Its T/C is 1.24.

And the “# Cures /6” value [1, 5]?
Its value is 0.

What about the “# Toxic Deaths /6” value [1, 5] of the same compound?
Its value is 0.

What about the “Maximum % Weight Loss” value [1, 5] of the same compound?
Its value is 19%.

And the “Mean Day of Death” value ([1]; Table 3, one cycle (I) or no cycle mark, mg/kg: FdU 70, FdC 12, H4U 25, BAU 30 where given, * not including cures, control 21.1)?
The value was 26.0.

What about the MTD at 7 days [2] of the same compound?
The MTD at 7 days was 75 mg/kg.

Which cures ([1]; Examples 1A and 1B together, i.p. 1/day x 7 days from day 1, mg/kg: FdC 12, H4U 25, BAU 9 or 30, FUra 25) does the source give for `O=c1[nH]cc(F)c(=O)[nH]1` [FUra, 5-fluorouracil] here?
Its cures is “No cures”.

And the “# of cures/6” value ([3]; Table 6, inoculum 10^7 cells, mg/kg: FdC 12, H4U 25, BAU 10, FUra 25, FdU 60)?
The value was “No cures”.

And the “Day of Death” value ([3]; inoculum 5 x 10^5 cells)?
Its value is 17,18 21,22.

What about the “Day of Death” value ([3]; inoculum 10^5 cells) of the same compound?
The value was 17,19 21,33.

What about the “# Cures /6 mice” value ([3]; inoculum 5 x 10^5 cells) of the same compound?
Its value is 1.

What about the “% Cures” value ([3]; inoculum 5 x 10^5 cells) of the same compound?
The value was 17%.

And the “mean day of death” value ([3]; inoculum 5 x 10^5 cells, control 12.5)?
Its value is 19.2.

What about the “Maximum Weight Loss” value ([3]; inoculum 5 x 10^5 cells) of the same compound?
Its value is 17.4.

What about the “# Cures /6 mice” value ([3]; inoculum 10^5 cells) of the same compound?
The value was 2.

And the “% Cures” value ([3]; inoculum 10^5 cells)?
The value was 33%.

And the “mean day of death” value ([3]; inoculum 10^5 cells)?
The value was 20.0.

And the “Maximum Weight Loss” value ([3]; inoculum 10^5 cells)?
Its value is 17.0.

And the T/C ([3]; inoculum 5 x 10^5 cells)?
Its T/C is 1.51.

And the T/C ([3]; inoculum 10^5 cells)?
Its T/C is 1.57.
